Experimental findings from BindingDB's records for patent US12227501 (Bayer Aktiengesellschaft, 2025) are described below.

The target of experiment [1] is T1, Casein kinase I isoform alpha (Homo sapiens, UniProt P48729). As to the kind of experiment: CSNK1A1 Assay 2. As for the experimental part:
For the assay 50 nl of a 100 fold concentrated solution of the test compound in DMSO was pipetted into a white 1536-well microtiter plate (Greiner Bio-One, Frickenhausen, Germany), 2 μL of a solution of CSNK1A1 in aqueous assay buffer [50 mM HEPES pH 7.5, 10% (v/v) glycerol, 10 mM MgCl2, 50 mM NaCl, 1 mM dithiothreitol, 0.01% (w/v) bovine serum albumin, 0.01% (v/v) Triton X-100] were added and the mixture was incubated for 15 min at 22° C. to allow pre-binding of the test compounds to the enzyme before the start of the kinase reaction. […] The concentration of CSNK1A1 was adjusted depending of the activity of the enzyme lot and was chosen appropriate to have the assay in the linear range, a typical concentrations are about 0.0375 ng/μL. The reaction was stopped by the addition of 2.5 μL of “ADP-Glo-reagent” (1:1.5 fold diluted with water) and the resulting mixture was incubated at 22° C. for 1 h to convert the ATP not consumed in the kinase reaction completely […]. Subsequently 2.5 μL of the “kinase detection reagent” (1.2 fold more concentrated than recommended by the producer) were added, the resulting mixture was incubated at 22° C. for 1 h and then the luminescence measured with a suitable measurement instrument (e.g. Viewlux™ from Perkin-Elmer).

The target in experiment [2] is Casein kinase I isoform delta (Homo sapiens, UniProt P48730). The experiment in a line: CSNK1D Assay. The protocol: For the assay 50 nl of a 100 fold concentrated solution of the test compound in DMSO was pipetted into a white 1536-well microtiter plate (Greiner Bio-One, Frickenhausen, Germany), 2 μL of a solution of CSNK1D in aqueous assay buffer [50 mM HEPES pH 7.5, 10% (v/v) glycerol, 10 mM MgCl2, 50 mM NaCl, 1 mM dithiothreitol, 0.01% (w/v) bovine serum albumin, 0.01% (v/v) Triton X-100] were added and the mixture was incubated for 15 min at 22° C. to allow pre-binding of the test compounds to the enzyme before the start of the kinase reaction. […] The concentration of CSNK1 D was adjusted depending of the activity of the enzyme lot and was chosen appropriate to have the assay in the linear range, a typical concentration is about 0.5 ng/μL. The reaction was stopped by the addition of 2.5 μL of “ADP-Glo-reagent” (1:1.5 fold diluted with water) and the resulting mixture was incubated at 22° C. for 1 h to convert the ATP not consumed in the kinase reaction completely […]. Subsequently 2.5 μL of the “kinase detection reagent” (1.2 fold more concentrated than recommended by the producer) were added, the resulting mixture was incubated at 22° C. for 1 h and then the luminescence measured with a suitable measurement instrument (e.g. Viewlux™ from Perkin-Elmer). The amount of emitted light was taken as a measure for the amount of ADP generated and thereby for the activity of the CSNK1D.
Casein kinase I isoform delta, sequence (P48730 whole entry, canonical isoform): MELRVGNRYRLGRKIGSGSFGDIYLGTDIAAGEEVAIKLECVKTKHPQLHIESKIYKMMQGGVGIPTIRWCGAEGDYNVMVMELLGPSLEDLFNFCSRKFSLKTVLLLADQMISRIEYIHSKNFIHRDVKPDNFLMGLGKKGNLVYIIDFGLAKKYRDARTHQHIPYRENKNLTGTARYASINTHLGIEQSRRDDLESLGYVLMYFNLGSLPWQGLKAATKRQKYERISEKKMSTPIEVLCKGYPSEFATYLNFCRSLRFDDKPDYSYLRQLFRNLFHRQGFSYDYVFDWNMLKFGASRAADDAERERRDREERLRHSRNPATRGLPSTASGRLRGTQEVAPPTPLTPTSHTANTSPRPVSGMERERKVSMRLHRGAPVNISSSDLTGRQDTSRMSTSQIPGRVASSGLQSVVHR

Experiment [3] addresses T1, Casein kinase I isoform alpha. The experiment in a line: CSNK1A1 High ATP Assay. The protocol: For the assay 50 nl of a 100 fold concentrated solution of the test compound in DMSO was pipetted into a white low volume 384-well microtiter plate (Greiner Bio-One, Frickenhausen, Germany), 2 μL of a solution of CSNK1A1 in aqueous assay buffer [50 mM HEPES pH 7.5, 10% (v/v) glycerol, 10 mM MgCl2, 50 mM NaCl, 1 mM dithiothreitol, 0.01% (w/v) bovine serum albumin, 0.01% (v/v) Triton X-100] were added and the mixture was incubated for 15 min at 22° C. to allow pre-binding of the test compounds to the enzyme before the start of the kinase reaction. […] The concentration of CSNK1A1 was adjusted depending of the activity of the enzyme lot and was chosen appropriate to have the assay in the linear range, a typical concentration is about 0.4 ng/μL. The reaction was stopped by the addition of 2.5 μL of “ADP-Glo-reagent” (1:1.5 fold diluted with water) and the resulting mixture was incubated at 22° C. for 1 h to convert the ATP not consumed in the kinase reaction completely […]. Subsequently 2.5 μL of the “kinase detection reagent” (1.2 fold more concentrated than recommended by the producer) were added, the resulting mixture was incubated at 22° C. for 1 h and then the luminescence measured with a suitable measurement instrument (e.g. Viewlux™ from Perkin-Elmer). The amount of emitted light was taken as a measure for the amount of ADP generated and thereby for the activity of the CSNK1A1.

In experiment [4] the target is T2, Epidermal growth factor receptor [669-1210] (UniProt P00533).
T2 construct: 669-1210
T2 sequence (P00533 669-1210): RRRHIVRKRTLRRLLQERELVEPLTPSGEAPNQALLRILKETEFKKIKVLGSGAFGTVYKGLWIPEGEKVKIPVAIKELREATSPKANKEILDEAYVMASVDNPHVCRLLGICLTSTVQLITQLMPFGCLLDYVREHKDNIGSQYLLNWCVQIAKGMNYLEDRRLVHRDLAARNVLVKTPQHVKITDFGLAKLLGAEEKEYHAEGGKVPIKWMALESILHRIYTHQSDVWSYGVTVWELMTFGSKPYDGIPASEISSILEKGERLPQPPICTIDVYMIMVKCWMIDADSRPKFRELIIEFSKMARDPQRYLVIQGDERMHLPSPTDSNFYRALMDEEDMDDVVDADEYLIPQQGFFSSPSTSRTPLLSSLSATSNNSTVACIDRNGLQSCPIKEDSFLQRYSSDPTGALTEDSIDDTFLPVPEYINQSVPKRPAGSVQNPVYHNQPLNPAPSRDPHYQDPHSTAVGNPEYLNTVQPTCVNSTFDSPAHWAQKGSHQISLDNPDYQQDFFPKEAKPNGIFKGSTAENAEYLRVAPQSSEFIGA
The experiment in a line: WT-EGFR Kinase Assay. As for the experimental part:
For the assay 50 nl of a 100 fold concentrated solution of the test compound in DMSO was pipetted into either a black low volume 384 well microtiter plate or a black 1536 well microtiter plate (both Greiner Bio-One, Frickenhausen, Germany), 2 μL of a solution of EGFR in aqueous assay buffer [50 mM Hepes pH 7.0, 10 mM MgCl2, 1 mM dithiothreitol, 0.5 mM EGTA, 0.3 mM activated sodium ortho-vanadate, 0.005% (w/v) bovine serum albumin, 0.005% (v/v) Tween-20] were added and the mixture was incubated for 15 min at 22° C. to allow pre-binding of the test compounds to the enzyme before the start of the kinase reaction. […] The concentration of EGFR was adjusted depending of the activity of the enzyme lot and was chosen appropriate to have the assay in the linear range, typical concentration was 7.6 pg/μL. […] Subsequently the amount of phosphorylated substrate was evaluated by measurement of the resonance energy transfer from the PT66-Tb-Cryptate to the streptavidine-XL665.

Experiment [5] concerns the target T1, Casein kinase I isoform alpha. The experiment in a line: CSNK1A1 Assay 1. As for the experimental part:
Inhibitory activity of compounds of the present invention in presence of 1 μM adenosine-tri-phosphate (ATP) was quantified employing the CSNK1A1 assay as described in the following paragraphs. In essence, the enzyme activity is measured by quantification of the adenosine-di-phosphate (ADP), which is generated as a co-product of the enzyme reaction, via the “ADP-Glo™ Kinase Assay” kit from the company Promega. This detection system works as follows: In a first step the ATP not consumed in the kinase reaction is quantitatively converted to cAMP employing an adenylate cyclase (“ADP-Glo-reagent”), then the adenylate cyclase is stopped and the ADP generated in the kinase reaction converted to ATP which generates in a luciferase-based reaction a glow-luminescence signal (“Kinase Detection Reagent”). Recombinant fusion protein of N-terminal Glutathion-S-Transferase (GST) and full-length human CSNK1A1, expressed by baculovirus infected insect cells and purified via Glutathion affinity chromatography, was purchased from Life Technologies (product no. PV4174) and used as enzyme. As substrate for the kinase reaction the biotinylated peptide Btn-Ahx-[…] (C-terminus in amide form) was used which can be purchased e.g. from the company Biosyntan (Berlin-Buch, Germany).

Structures are written as SMILES.

T1 sequence (P48729 whole entry, canonical isoform): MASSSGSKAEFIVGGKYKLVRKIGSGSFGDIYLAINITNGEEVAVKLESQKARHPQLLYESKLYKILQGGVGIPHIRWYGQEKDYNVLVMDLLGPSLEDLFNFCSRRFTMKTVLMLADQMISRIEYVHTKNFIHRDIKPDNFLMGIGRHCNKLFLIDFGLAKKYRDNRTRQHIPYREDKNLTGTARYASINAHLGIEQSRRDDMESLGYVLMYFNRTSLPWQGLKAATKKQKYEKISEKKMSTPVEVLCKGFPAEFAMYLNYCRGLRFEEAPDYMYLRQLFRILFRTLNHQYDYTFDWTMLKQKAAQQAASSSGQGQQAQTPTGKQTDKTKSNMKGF

On to `Cc1cccc(CC(=O)Nc2cc(-c3[nH]c4c(c3Nc3ccccc3)C(=O)N(C)CC4)ccn2)c1` [US12227501, Example 70], for which the IC50 in experiment [1] worked out at 3.2 nM; in experiment [2] it was 3.66 nM; in experiment [3], 140 nM; in experiment [4], 2040 nM.

`Cc1c(F)cccc1Nc1c(-c2ccnc(NC(=O)Cc3ccc(F)cc3)c2)[nH]c2c1C(=O)NC(C)(C)C2` [US12227501, Example 131]: the IC50 in experiment [1] turned out to be 9.38 nM; in experiment [2], 11.6 nM; in experiment [3], 464 nM; in experiment [4] it was 1090 nM.

Regarding `CC1(C)Cc2[nH]c(-c3ccnc(NC(=O)Cc4ccc(F)cc4)c3)c(Nc3cccc(F)n3)c2C(=O)N1` [US12227501, Example 126], the IC50 in experiment [1] worked out at 4.44 nM; in experiment [2], 14.4 nM; in experiment [3], 47.8 nM.

As for `CC(C(=O)Nc1cc(-c2[nH]c3c(c2Nc2ccccc2F)C(=O)N(C)CC3)ccn1)c1ccc(F)cc1` (stereo not drawn) [US12227501, Example 29], the figures for the IC50 in experiment [1] and in experiment [3] were 3.19 nM and 138 nM, respectively.

Take `Cc1ccccc1Nc1c(-c2ccnc(NC(=O)Cc3ccc(F)cc3)c2)[nH]c2c1C(=O)NC1(CCC1)C2` [US12227501, Example 142]: the IC50 in experiment [1] was 5.1 nM; in experiment [2], 9.35 nM; in experiment [3], 12.3 nM; in experiment [4] it was over 20000 nM.

On to `CC(C(=O)Nc1cc(-c2[nH]c3c(c2Nc2ccccc2)C(=O)N(CC(F)(F)F)CC3)ccn1)c1ccc(F)cc1` (stereo not drawn) [US12227501, Example 37], for which the IC50 in experiment [1] was 22.6 nM; in experiment [3] it was over 1630 nM; in experiment [4], over 20000 nM.

`CN1C(=O)c2c([nH]c(-c3ccnc(NC(=O)Cc4ccc(F)cc4)c3)c2Nc2ccccc2)CC12CCC2` [US12227501, Example 156]: the IC50 turned out to be 6.09 nM in experiment [1], 9.38 nM in experiment [2], 29.7 nM in experiment [3] and 6660 nM in experiment [4].

With `CC1(C)Cc2[nH]c(-c3ccnc(NC(=O)Cc4ccc(F)cc4)c3)c(Nc3ccccc3)c2C(=O)N1` [US12227501, Example 22], the IC50 was found to be 4.23 nM in experiment [1], 11.9 nM in experiment [2], 54.7 nM in experiment [3] and 815 nM in experiment [4].

With `CC1(C)Cc2[nH]c(-c3ccnc(NC(=O)Cc4ccc(F)cc4)c3)c(Nc3cccc(F)n3)c2C(=O)N1` [US12227501, Example 127], the IC50 in experiment [1] was 4.74 nM; in experiment [3] it was 23.1 nM; in experiment [4], over 20000 nM.

In the case of `Cc1ccccc1CC(=O)Nc1cc(-c2[nH]c3c(c2Nc2ccccc2)C(=O)N(C)CC3)ccn1` [US12227501, Example 71], the IC50 in experiment [1] turned out to be 4.79 nM; in experiment [2], 6.47 nM; in experiment [3], 241 nM; in experiment [4] it was 7430 nM.

`O=C(Cc1ccc(F)cc1)Nc1cc(-c2[nH]c3c(c2Nc2ccccc2)C(=O)N(CC(F)(F)F)CC3)ccn1` [US12227501, Example 36]: the IC50 in experiment [1] is 11.3 nM; in experiment [3], 1080 nM; in experiment [4] it was over 20000 nM.

Regarding `Cc1ccccc1Nc1c(-c2ccnc(NC(=O)Cc3ccc(F)cc3)c2)[nH]c2c1C(=O)NC(C)(C)C2` [US12227501, Example 113], the IC50 turned out to be 13.7 nM in experiment [1], 16.1 nM in experiment [2] and 166 nM in experiment [3].

In the case of `CN1CCc2[nH]c(-c3ccnc(NC(=O)[C@@H]4C[C@@H]4F)c3)c(Nc3ccccc3)c2C1=O` [US10428063, Example 40], the IC50 in experiment [5] stood at 24.1 nM; in experiment [4], 85.5 nM.
